Experimental data from ChEMBL document CHEMBL3627608, “Crystal structures of human RIP2 kinase catalytic domain complexed with ATP-competitive inhibitors: Foundations for understanding inhibitor selectivity” (Bioorg Med Chem, 2015).

What was measured:
[1] = target: T1, Ephrin type-A receptor 8 (Homo sapiens) (UniProt P29322); assay: Inhibition of EPHA8 (unknown origin) at 10 uM after 120 mins P33 radiolabeled kinase activity assay
T1 sequence (whole entry): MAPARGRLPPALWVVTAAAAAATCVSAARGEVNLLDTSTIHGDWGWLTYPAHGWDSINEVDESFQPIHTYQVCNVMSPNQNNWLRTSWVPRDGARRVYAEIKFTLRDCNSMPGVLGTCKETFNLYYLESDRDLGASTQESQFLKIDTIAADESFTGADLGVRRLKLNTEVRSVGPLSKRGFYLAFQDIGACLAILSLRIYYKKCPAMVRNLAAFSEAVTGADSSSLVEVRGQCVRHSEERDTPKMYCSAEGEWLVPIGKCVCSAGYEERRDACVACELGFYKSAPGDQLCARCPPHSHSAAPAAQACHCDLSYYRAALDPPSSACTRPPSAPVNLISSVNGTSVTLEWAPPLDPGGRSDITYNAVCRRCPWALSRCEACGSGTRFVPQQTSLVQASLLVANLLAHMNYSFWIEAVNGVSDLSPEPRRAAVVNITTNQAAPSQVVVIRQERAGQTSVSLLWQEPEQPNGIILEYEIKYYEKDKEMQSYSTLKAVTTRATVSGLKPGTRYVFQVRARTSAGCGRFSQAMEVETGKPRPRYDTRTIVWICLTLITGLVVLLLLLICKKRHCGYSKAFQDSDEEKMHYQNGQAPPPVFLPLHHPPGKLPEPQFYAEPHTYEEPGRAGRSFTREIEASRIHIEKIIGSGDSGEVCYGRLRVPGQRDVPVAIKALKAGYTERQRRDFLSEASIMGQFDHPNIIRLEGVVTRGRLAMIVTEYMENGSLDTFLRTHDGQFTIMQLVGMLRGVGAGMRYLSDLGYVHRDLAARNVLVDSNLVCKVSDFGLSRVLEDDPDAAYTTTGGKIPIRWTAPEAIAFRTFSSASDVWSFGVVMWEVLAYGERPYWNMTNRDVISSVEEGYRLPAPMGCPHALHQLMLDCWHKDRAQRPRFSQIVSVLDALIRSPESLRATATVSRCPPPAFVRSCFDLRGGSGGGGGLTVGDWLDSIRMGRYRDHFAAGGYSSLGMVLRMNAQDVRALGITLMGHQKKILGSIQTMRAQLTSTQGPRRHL

[2] = target: T2, Serine/threonine-protein kinase D3 (Homo sapiens) (UniProt O94806); assay: Inhibition of PKCnu (unknown origin) at 10 uM after 120 mins P33 radiolabeled kinase activity assay
T2 sequence (whole entry): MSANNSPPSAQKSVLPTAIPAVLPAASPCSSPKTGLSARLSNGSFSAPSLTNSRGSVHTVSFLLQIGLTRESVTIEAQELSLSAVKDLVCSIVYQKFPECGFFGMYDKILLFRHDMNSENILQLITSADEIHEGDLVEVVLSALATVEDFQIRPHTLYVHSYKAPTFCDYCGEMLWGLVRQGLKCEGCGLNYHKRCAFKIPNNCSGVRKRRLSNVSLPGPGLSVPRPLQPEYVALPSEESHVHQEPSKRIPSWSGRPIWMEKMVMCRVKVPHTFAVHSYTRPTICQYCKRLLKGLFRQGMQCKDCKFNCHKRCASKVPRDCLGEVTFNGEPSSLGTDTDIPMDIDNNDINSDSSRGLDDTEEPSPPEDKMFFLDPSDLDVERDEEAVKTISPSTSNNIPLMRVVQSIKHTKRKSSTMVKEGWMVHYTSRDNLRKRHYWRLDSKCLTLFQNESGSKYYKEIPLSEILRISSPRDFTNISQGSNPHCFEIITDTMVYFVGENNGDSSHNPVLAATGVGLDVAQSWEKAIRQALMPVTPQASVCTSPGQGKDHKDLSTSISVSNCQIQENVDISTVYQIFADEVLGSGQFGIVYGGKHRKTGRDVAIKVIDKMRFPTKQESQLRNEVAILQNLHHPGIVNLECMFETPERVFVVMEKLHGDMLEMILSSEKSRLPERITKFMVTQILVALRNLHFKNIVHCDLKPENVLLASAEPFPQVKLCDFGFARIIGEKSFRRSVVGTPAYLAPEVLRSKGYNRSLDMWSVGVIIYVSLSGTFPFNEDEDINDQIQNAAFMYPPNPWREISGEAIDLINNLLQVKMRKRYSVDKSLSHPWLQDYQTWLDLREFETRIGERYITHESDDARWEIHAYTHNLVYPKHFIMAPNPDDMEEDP

[3] = target: Ephrin type-A receptor 4 (Homo sapiens) (UniProt P54764); assay: Inhibition of EPHA4 (unknown origin) at 10 uM after 120 mins P33 radiolabeled kinase activity assay
[4] = target: Receptor tyrosine-protein kinase erbB-4 (Homo sapiens) (UniProt Q15303); assay: Inhibition of ERBB4 (unknown origin) at 10 uM after 120 mins P33 radiolabeled kinase activity assay
[5] = target: Receptor-interacting serine/threonine-protein kinase 2 (Homo sapiens, UniProt O43353); assay: Inhibition of full-length FLAG-6His-TEV tagged human RIP2 expressed in Sf9 cells assessed as reduction in autophosphorylation pre-incubated for 30 mins followed by incubation with ATP for 2 hrs by ADP-Glo assay
[6] = target: Serine/threonine-protein kinase Nek4 (Homo sapiens) (UniProt P51957); assay: Inhibition of NEK4 (unknown origin) at 10 uM after 120 mins P33 radiolabeled kinase activity assay
[7] = target: Cyclin-dependent kinase 2 (Homo sapiens) (UniProt P24941); assay: Inhibition of CDK2 (unknown origin) at 10 uM after 120 mins P33 radiolabeled kinase activity assay
[8] = target: Tyrosine-protein kinase Fyn (Homo sapiens) (UniProt P06241); assay: Inhibition of FYN (unknown origin) at 10 uM after 120 mins P33 radiolabeled kinase activity assay
[9] = target: Focal adhesion kinase 1 (Homo sapiens) (UniProt Q05397); assay: Inhibition of FAK (unknown origin) at 10 uM after 120 mins P33 radiolabeled kinase activity assay
[10] = target: Mitogen-activated protein kinase 9 (Homo sapiens) (UniProt P45984); assay: Inhibition of JNK2 (unknown origin) at 10 uM after 120 mins P33 radiolabeled kinase activity assay
[11] = target: Leukocyte tyrosine kinase receptor (Homo sapiens) (UniProt P29376); assay: Inhibition of TYK1 (unknown origin) at 10 uM after 120 mins P33 radiolabeled kinase activity assay
[12] = target: Non-receptor tyrosine-protein kinase TYK2 (Homo sapiens) (UniProt P29597); assay: Inhibition of TYK2 (unknown origin) at 10 uM after 120 mins P33 radiolabeled kinase activity assay
[13] = target: Protein-tyrosine kinase 6 (Homo sapiens) (UniProt Q13882); assay: Inhibition of BRK (unknown origin) at 10 uM after 120 mins P33 radiolabeled kinase activity assay
[14] = target: Serine/threonine-protein kinase PAK 5 (Homo sapiens) (UniProt Q9P286); assay: Inhibition of PAK5 (unknown origin) at 10 uM after 120 mins P33 radiolabeled kinase activity assay
[15] = target: Casein kinase II subunit alpha (Homo sapiens) (UniProt P68400); assay: Inhibition of CK2alpha (unknown origin) at 10 uM after 120 mins P33 radiolabeled kinase activity assay
Chain of Casein kinase II subunit alpha (Homo sapiens) (P68400 whole entry, looked up): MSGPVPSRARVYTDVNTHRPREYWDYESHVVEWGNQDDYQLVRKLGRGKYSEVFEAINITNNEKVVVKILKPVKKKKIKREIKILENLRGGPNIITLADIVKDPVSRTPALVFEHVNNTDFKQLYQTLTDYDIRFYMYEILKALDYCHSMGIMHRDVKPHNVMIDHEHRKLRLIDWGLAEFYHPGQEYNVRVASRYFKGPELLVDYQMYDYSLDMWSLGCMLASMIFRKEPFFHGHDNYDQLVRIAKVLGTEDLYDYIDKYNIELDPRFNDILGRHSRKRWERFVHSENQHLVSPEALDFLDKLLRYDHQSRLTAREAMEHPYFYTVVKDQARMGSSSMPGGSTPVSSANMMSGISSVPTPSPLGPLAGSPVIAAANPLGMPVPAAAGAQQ

Chain of Tyrosine-protein kinase Fyn (Homo sapiens) (P06241 2-537 limits assumed): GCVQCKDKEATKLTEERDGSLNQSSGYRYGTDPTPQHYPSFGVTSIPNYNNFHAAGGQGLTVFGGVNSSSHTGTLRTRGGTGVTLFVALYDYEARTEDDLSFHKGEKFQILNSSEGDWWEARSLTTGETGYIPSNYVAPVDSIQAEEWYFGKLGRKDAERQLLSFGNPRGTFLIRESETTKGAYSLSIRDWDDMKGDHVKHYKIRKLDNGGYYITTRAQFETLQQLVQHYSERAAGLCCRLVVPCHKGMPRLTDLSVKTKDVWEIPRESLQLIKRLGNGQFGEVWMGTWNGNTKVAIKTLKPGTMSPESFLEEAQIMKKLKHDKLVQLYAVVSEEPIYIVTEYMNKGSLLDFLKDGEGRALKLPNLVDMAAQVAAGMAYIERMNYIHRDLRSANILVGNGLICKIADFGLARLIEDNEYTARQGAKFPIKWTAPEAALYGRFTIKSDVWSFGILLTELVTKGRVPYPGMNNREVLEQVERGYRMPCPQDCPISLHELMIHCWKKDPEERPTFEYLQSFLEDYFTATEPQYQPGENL
Chain of Ephrin type-A receptor 4 (Homo sapiens) (P54764 whole entry): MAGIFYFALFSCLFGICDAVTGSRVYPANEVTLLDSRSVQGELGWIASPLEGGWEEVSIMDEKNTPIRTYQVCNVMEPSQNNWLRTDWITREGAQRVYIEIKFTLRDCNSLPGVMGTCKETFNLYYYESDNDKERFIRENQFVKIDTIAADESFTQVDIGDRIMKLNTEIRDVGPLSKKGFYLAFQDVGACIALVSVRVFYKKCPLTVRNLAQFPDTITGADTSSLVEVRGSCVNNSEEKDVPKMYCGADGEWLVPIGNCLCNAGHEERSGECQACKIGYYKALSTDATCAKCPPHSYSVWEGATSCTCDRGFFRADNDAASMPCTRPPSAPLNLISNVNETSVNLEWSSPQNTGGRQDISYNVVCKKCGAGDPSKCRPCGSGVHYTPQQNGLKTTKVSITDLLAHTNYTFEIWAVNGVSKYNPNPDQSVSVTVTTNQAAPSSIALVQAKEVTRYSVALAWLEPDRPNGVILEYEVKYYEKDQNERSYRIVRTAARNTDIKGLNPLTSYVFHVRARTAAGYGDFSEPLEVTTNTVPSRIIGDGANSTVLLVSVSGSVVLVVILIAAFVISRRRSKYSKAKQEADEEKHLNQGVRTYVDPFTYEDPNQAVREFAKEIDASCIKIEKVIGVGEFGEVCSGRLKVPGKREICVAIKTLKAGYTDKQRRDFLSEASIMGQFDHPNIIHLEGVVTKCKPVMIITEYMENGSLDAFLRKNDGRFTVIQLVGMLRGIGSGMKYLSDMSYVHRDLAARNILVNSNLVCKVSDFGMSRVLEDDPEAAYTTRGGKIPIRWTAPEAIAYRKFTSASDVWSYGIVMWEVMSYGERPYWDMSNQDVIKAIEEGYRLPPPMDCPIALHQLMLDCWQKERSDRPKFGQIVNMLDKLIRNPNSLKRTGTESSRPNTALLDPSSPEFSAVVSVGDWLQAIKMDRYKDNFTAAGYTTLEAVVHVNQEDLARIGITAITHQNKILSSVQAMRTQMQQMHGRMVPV
Chain of Protein-tyrosine kinase 6 (Homo sapiens) (Q13882 whole entry, looked up): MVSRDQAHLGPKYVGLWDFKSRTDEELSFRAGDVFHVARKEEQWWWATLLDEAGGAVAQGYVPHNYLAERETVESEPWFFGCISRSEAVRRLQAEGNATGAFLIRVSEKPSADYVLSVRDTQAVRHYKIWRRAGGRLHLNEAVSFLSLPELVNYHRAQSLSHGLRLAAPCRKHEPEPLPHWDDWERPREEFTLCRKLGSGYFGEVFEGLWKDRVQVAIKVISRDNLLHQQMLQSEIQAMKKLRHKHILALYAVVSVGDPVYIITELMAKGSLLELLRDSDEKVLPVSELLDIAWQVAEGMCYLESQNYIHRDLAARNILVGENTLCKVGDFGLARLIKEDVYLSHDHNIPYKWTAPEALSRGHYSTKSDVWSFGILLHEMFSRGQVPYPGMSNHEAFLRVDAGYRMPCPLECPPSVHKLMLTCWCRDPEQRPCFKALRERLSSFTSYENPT
Chain of Receptor-interacting serine/threonine-protein kinase 2 (O43353 whole entry): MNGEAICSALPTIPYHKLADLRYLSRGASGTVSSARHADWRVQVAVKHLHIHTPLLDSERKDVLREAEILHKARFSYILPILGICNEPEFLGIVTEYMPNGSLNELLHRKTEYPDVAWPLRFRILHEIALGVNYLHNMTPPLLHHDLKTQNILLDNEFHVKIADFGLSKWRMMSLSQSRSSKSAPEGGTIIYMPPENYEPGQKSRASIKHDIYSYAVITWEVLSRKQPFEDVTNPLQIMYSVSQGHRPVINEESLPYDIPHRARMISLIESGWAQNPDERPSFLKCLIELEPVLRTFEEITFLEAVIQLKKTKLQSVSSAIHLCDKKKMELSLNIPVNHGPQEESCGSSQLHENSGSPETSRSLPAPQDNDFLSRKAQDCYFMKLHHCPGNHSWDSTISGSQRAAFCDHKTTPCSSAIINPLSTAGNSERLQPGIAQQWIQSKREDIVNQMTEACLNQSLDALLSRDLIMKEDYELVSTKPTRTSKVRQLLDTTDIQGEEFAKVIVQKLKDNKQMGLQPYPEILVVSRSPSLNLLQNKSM
Chain of Non-receptor tyrosine-protein kinase TYK2 (Homo sapiens) (P29597 whole entry): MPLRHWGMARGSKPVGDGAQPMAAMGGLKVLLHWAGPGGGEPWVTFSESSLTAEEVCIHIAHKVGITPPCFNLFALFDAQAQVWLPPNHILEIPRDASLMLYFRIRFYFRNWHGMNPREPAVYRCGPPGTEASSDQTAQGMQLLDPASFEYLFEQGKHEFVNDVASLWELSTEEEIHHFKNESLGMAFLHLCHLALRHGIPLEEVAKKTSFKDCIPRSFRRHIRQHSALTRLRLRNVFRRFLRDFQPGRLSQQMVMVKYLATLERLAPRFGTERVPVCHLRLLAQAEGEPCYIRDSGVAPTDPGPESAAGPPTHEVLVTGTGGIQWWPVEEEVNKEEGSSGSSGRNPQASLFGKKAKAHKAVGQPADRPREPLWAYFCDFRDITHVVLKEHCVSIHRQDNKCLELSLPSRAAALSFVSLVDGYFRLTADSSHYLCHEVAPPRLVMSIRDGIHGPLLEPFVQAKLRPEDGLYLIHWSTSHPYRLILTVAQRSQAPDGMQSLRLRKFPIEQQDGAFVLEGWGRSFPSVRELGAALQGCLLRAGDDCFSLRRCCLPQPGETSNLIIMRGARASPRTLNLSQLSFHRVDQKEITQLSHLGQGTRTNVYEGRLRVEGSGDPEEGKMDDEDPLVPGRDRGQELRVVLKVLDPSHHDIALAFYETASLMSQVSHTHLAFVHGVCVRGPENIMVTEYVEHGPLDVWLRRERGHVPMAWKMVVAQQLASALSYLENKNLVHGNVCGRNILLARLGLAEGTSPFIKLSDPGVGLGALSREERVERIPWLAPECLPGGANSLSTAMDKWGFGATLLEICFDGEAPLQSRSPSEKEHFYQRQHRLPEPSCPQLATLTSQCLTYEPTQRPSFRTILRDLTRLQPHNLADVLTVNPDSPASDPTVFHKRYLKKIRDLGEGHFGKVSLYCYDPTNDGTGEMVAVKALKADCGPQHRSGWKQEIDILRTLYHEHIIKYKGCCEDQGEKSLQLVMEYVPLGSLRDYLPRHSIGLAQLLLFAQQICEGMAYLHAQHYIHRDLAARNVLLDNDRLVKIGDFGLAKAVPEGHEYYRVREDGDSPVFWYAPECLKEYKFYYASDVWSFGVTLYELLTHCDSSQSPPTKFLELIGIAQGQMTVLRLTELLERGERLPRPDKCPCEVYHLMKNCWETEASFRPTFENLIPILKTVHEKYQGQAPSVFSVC
Chain of Mitogen-activated protein kinase 9 (Homo sapiens) (P45984 whole entry, looked up): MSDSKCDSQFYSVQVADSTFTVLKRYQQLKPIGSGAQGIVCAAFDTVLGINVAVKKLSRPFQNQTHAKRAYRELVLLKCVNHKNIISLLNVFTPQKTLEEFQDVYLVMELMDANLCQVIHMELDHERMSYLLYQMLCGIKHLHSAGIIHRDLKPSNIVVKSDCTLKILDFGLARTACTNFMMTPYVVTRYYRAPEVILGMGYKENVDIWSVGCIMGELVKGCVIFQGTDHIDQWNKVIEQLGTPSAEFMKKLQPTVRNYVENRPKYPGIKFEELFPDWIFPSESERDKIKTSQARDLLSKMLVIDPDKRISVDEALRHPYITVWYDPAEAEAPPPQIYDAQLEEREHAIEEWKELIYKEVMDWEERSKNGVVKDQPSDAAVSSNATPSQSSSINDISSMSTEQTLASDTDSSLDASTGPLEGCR

inhibition [1] [%] | inhibition [2] [%] | inhibition [3] [%] | inhibition [4] [%] | IC50 [5] [nM] | inhibition [6] [%] | inhibition [7] [%] | inhibition [8] [%] | inhibition [9] [%] | inhibition [10] [%] | inhibition [11] [%] | inhibition [12] [%] | inhibition [13] [%] | inhibition [14] [%] | inhibition [15] [%] | SMILES
12.2 | 9.76 | 14.3 | 1.69 | 12 | -2.37 | 7.06 | 49.1 | 0.5 | 9.13 | 4.59 | 13.2 | 84.4 | 14.8 | 8.6 | COCCNC(=O)c1ccc2c(c1)nc(-c1cnc(-c3ccc(Cl)cc3)[nH]1)n2CCOC
74.6 | 99.9 | 70.5 | 98.5 | 6.3 | 59.9 | 75.7 | 99.8 | 15 | 13.5 | 7.78 | 54.8 | 100 | 17.8 | 19.7 | CS(=O)(=O)c1cccc(Nc2nccc(-c3sc(N4CCOCC4)nc3-c3cccc(NS(=O)(=O)c4c(F)cccc4F)c3)n2)c1
80.5 | 11.4 | 97 | -3.92 | 63 | 21.7 | 67.3 | 85.8 | 11.7 | 79.8 | 35.5 | 9.99 | 95.7 | 14.3 | 20 | CC(C)(C)c1cc(NC(=O)Nc2ccc(Oc3ccncc3)cc2)no1
